Test system: β-catenin-TCF-mediated reporter transcription activity in Colo 205 cells
Assay: Colo 205 reporter assay (TCF/LEF luciferase)
Assay type: cell-based
Settings: Colo 205 TCF/LEF luciferase reporter, five hours after addition of compound; read-out: TCF reporter Colo205 IC50
Summary of the method: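 Luciferase signal from a TCF/LEF-driven reporter, stably integrated in Colo 205 colon cancer cells, was measured 5 h after compound addition.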

IC50 | Structure (SMILES)
300 to 1000 nM | COCC1(C)C(=O)Nc2c(C)nc(NCc3cnn(Cc4ccc(C(F)(F)F)nc4)c3)nc2N1C (stereo not drawn) [Compound 707, 7-(methoxymethyl)-4,7,8-trimethyl-2-(((1-((6-(trifluoromethyl)pyridin-3-yl)methyl)-1H-pyrazol-4-yl)methyl)amino)-7,8-dihydropteridin-6(5H)-one]

Same assay, conditions: Homo sapiens, COLO 205, 5 h, Colo 205 TCF/LEF luciferase reporter, five hours after addition of compound; read-out: TCF reporter Colo205 IC50

IC50 | Structure (SMILES)
< 300 nM | Cc1nc(NCc2cnn(Cc3cnc(C(F)(F)F)c(F)c3)c2)nc2c1NC(=O)[C@H](C)N2C [Compound 209, (7S)-2-(((1-((5-fluoro-6-(trifluoromethyl)pyridin-3-yl)methyl)-1H-pyrazol-4-yl)methyl)amino)-4,7,8-trimethyl-7,8-dihydropteridin-6(5H)-one]
300 to 1000 nM | Cc1nc(NC2CN(C(=O)c3ccc(C(F)(F)F)o3)C2)nc2c1NC(=O)[C@H](C(C)C)N2C [Compound 621, (S)-7-isopropyl-4,8-dimethyl-2-((1-(5-(trifluoromethyl)furan-2-carbonyl)azetidin-3-yl)amino)-7,8-dihydropteridin-6(5H)-one]
< 300 nM | Cc1nc(NCc2cnn(Cc3ccc(F)cc3O)c2)nc2c1NC(=O)[C@H](C)N2C [Compound 87, (7S)-2-(((1-(4-fluoro-2-hydroxybenzyl)-1H-pyrazol-4-yl)methyl)amino)-4,7,8-trimethyl-7,8-dihydropteridin-6(5H)-one]
300 to 1000 nM | Cc1nc(N[C@H]2C[C@H](n3nccc3C(F)(F)F)C2)nc2c1NC(=O)[C@H](C(C)C)N2C [Compound 673, (7S)-7-isopropyl-4,8-dimethyl-2-((trans-3-(5-(trifluoromethyl)-1H-pyrazol-1-yl)cyclobutyl)amino)-7,8-dihydropteridin-6(5H)-one]
300 to 1000 nM | COc1ccc(Cn2cc(CNc3ncc4c(n3)N(C)[C@@H](C)C(=O)N4)cn2)cc1F [Compound 148, (7S)-2-(((1-(3-fluoro-4-methoxybenzyl)-1H-pyrazol-4-yl)methyl)amino)-7,8-dimethyl-7,8-dihydropteridin-6(5H)-one]
1000 to 5000 nM | Cc1nc(NCc2cnn(Cc3ccc(C(F)(F)F)nc3)c2)nc2c1NC(=O)[C@H](C(C)(C)O)N2C [Compound 726, (S)-7-(2-hydroxypropan-2-yl)-4,8-dimethyl-2-(((1-((6-(trifluoromethyl)pyridin-3-yl)methyl)-1H-pyrazol-4-yl)methyl)amino)-7,8-dihydropteridin-6(5H)-one]
< 300 nM | Cc1nc(N[C@H]2C[C@H](OCc3ccc(F)c(F)c3)C2)nc2c1NC(=O)[C@H](C)N2C [Compound 264, (7S)-2-((trans-3-((3,4-difluorobenzyl)oxy)cyclobutyl)amino)-4,7,8-trimethyl-7,8-dihydropteridin-6(5H)-one]
< 300 nM | COc1cc(C(F)(F)F)ncc1Cn1cc(CNc2nc(C)c3c(n2)N(C)[C@@H](C)C(=O)N3)cn1 [Compound 210, (7S)-2-(((1-((4-methoxy-6-(trifluoromethyl)pyridin-3-yl)methyl)-1H-pyrazol-4-yl)methyl)amino)-4,7,8-trimethyl-7,8-dihydropteridin-6(5H)-one]
300 to 1000 nM | Cc1nc(NCc2cnn(Cc3ccc(C(F)(F)F)nc3)c2)nc2c1NC(=O)[C@H]([C@@H](C)O)N2C [Compound 744, (S)-7-((R)-1-hydroxyethyl)-4,8-dimethyl-2-(((1-((6-(trifluoromethyl)pyridin-3-yl)methyl)-1H-pyrazol-4-yl)methyl)amino)-7,8-dihydropteridin-6(5H)-one]
< 300 nM | CCN1C(=O)C2(CC2)N(CC)c2nc(NCc3cnn(Cc4cc(F)c(F)c(F)c4)c3)ncc21 [Compound 233, 5′,8′-diethyl-2′-(((1-(3,4,5-trifluorobenzyl)-1H-pyrazol-4-yl)methyl)amino)-5′,8′-dihydro-6′H-spiro[cyclopropane-1,7′-pteridin]-6′-one]
< 300 nM | Cc1nc(NCc2cnn(C[C@@H](C)c3ccccc3)c2)nc2c1NC(=O)[C@H](C)N2C [Compound 89, (7S)-4,7,8-trimethyl-2-(((1-((S)-2-phenylpropyl)-1H-pyrazol-4-yl)methyl)amino)-7,8-dihydropteridin-6(5H)-one]
< 300 nM | Cc1nc(NCc2cnn(Cc3ccc(C4CC4)nc3)c2)nc2c1NC(=O)[C@H](C(C)C)N2C [Compound 442, (7S)-2-(((1-((6-cyclopropylpyridin-3-yl)methyl)-1H-pyrazol-4-yl)methyl)amino)-7-isopropyl-4,8-dimethyl-7,8-dihydropteridin-6(5H)-one]
< 300 nM | Cc1cc(C(F)(F)F)cc(OC[C@H]2C[C@@H](Nc3nc(C)c4c(n3)N(C)[C@@H](C)C(=O)N4)C2)n1 [Compound 365, (7S)-4,7,8-trimethyl-2-((cis-3-(((6-methyl-4-(trifluoromethyl)pyridin-2-yl)oxy)methyl)cyclobutyl)amino)-7,8-dihydropteridin-6(5H)-one]
300 to 1000 nM | Cc1nc(N[C@H]2C[C@H](c3ccc(OC(F)(F)F)cc3)C2)nc2c1NC(=O)[C@H](C)N2C [Compound 506, (7S)-4,7,8-trimethyl-2-(((trans)-3-(4-(trifluoromethoxy)phenyl)cyclo-butyl)amino)-7,8-dihydropteridin-6(5H)-one]
300 to 1000 nM | C[C@H]1C(=O)Nc2cnc(N[C@H]3C[C@H](OCc4cc(F)c(F)c(F)c4)C3)nc2N1C [Compound 256, (7S)-7,8-dimethyl-2-((trans-3-((3,4,5-trifluorobenzyl)oxy)cyclobutyl)amino)-7,8-dihydropteridin-6(5H)-one]
< 300 nM | CO[C@H](C)[C@H]1C(=O)Nc2c(C)nc(NC3CN(C(=O)c4cc(F)c(F)c(F)c4)C3)nc2N1C [Compound 568, (S)-7-((R)-1-methoxyethyl)-4,8-dimethyl-2-((1-(3,4,5-trifluorobenzoyl)azetidin-3-yl)amino)-7,8-dihydropteridin-6(5H)-one]
< 300 nM | Cc1nc(N[C@H]2C[C@H](Oc3ccc(F)c(F)c3F)C2)nc2c1NC(=O)[C@H](C)N2C [Compound 291, (7S)-4,7,8-trimethyl-2-((trans 3-(2,3,4-trifluorophenoxy)cyclobutyl)amino)-7,8-dihydropteridin-6(5H)-one]
1000 to 5000 nM | Cc1nc(N[C@H]2C[C@H](n3ccc(C(F)(F)F)n3)C2)nc2c1NC(=O)[C@H](C(C)C)N2C [Compound 730, (S)-7-isopropyl-4,8-dimethyl-2-((trans-3-(3-(trifluoromethyl)-1H-pyrazol-1-yl)cyclobutyl)amino)-7,8-dihydropteridin-6(5H)-one]
≥ 5000 nM | C[C@H]1C(=O)Nc2cnc(NC3CN(Cc4ccccc4)C3)nc2N1C [Compound 245, (7S)-2-((1-benzylazetidin-3-yl)amino)-7,8-dimethyl-7,8-dihydropteridin-6(5H)-one]
300 to 1000 nM | CO[C@H](C)[C@H]1C(=O)Nc2c(C)nc(N[C@H]3C[C@H](N(C)c4cnc(C(F)(F)F)cn4)C3)nc2N1C [Compound 681, (S)-7-((R)-1-methoxyethyl)-4,8-dimethyl-2-((trans-3-(methyl(5-(trifluoromethyl)pyrazin-2-yl)amino)cyclobutyl)amino)-7,8-dihydropteridin-6(5H)-one]
300 to 1000 nM | COc1cc(F)ccc1O[C@H]1C[C@H](Nc2nc(C)c3c(n2)N(C)[C@@H](C)C(=O)N3)C1 [Compound 344, (7S)-2-((trans-3-(4-fluoro-2-methoxyphenoxy)cyclobutyl)amino)-4,7,8-trimethyl-7,8-dihydropteridin-6(5H)-one]
< 300 nM | COc1ccc(Cn2cc(CNc3nc(C)c4c(n3)N(C)[C@@H](C(C)C)C(=O)N4)cn2)cn1 [Compound 429, (7S)-7-isopropyl-2-(((1-((6-methoxypyridin-3-yl)methyl)-1H-pyrazol-4-yl)methyl)amino)-4,8-dimethyl-7,8-dihydropteridin-6(5H)-one]
≥ 5000 nM | Cc1nc(N[C@H]2C[C@@H](Cn3nc(N)cc3C(F)(F)F)C2)nc2c1NC(=O)[C@H](C(C)C)N2C [Compound 584, (S)-2-((cis-3-((3-amino-5-(trifluoromethyl)-1H-pyrazol-1-yl)methyl)cyclobutyl)amino)-7-isopropyl-4,8-dimethyl-7,8-dihydropteridin-6(5H)-one]
300 to 1000 nM | C[C@H]1C(=O)Nc2cnc(NCc3cnn(Cc4ccc(F)cc4)c3)nc2N1C [Compound 41, (7S)-2-(((1-(4-fluorobenzyl)-1H-pyrazol-4-yl)methyl)amino)-7,8-dimethyl-7,8-dihydropteridin-6(5H)-one]
< 300 nM | Cc1nc(N[C@H]2C[C@@H](COc3ccc(F)cc3C#N)C2)nc2c1NC(=O)[C@H](C)N2C [Compound 277, 5-fluoro-2-((cis-3-(((7S)-4,7,8-trimethyl-6-oxo-5,6,7,8-tetrahydropteridin-2-yl)amino)cyclobutyl)methoxy)benzonitrile]
< 300 nM | C#CC[C@H]1C(=O)N(C)c2cnc(NCc3cnn(Cc4cc(F)c(F)c(F)c4)c3)nc2N1C [Compound 25, (7S)-5,8-dimethyl-7-(prop-2-yn-1-yl)-2-(((1-(3,4,5-trifluorobenzyl)-1H-pyrazol-4-yl)methyl)amino)-7,8-dihydropteridin-6(5H)-one]
300 to 1000 nM | COCC1(C)C(=O)Nc2c(C)nc(NCc3cnn(Cc4ccc(C(F)(F)F)nc4)c3)nc2N1C (stereo not drawn) [Compound 703, 7-(methoxymethyl)-4,7,8-trimethyl-2-(((1-((6-(trifluoromethyl)pyridin-3-yl)methyl)-1H-pyrazol-4-yl)methyl)amino)-7,8-dihydropteridin-6(5H)-one]

Structure (SMILES) | IC50
Cc1nc(N[C@H]2C[C@H](Oc3ccc(C(F)(F)F)nc3)C2)nc2c1NC(=O)[C@H](COC(C)(C)C)N2C [Compound 725, (S)-7-(tert-butoxymethyl)-4,8-dimethyl-2-((trans-3-((6-(trifluoromethyl)pyridin-3-yl)oxy)cyclobutyl)amino)-7,8-dihydropteridin-6(5H)-one] | < 300 nM

Same assay, conditions: Homo sapiens, COLO 205, 5 h, R-isomer at C2 (corresponding to C2 S-isomer); Colo 205 TCF/LEF luciferase reporter, 5 h; read-out: TCF reporter Colo205 IC50

IC50 | Structure (SMILES)
300 to 1000 nM | Cc1nc(NCc2cnn(Cc3ccc(F)cc3)c2)nc2c1N(C)C(=O)[C@@H](C)N2C [Compound I-866]

— US20230312587A1, “PTERIDINONE COMPOUNDS AND USES THEREOF” (Vertex Pharmaceutical Incorporated, priority 2018, published 2023)
